# Measurements: ChEMBL document CHEMBL5316268 (J Med Chem, 2023)
# Calls of active or inactive are those of the source. No cut-off for these calls is given here.
# Experiments:
# EG7 [1] = test: Antitumor activity against mouse EG7 cells implanted in C57BL/6 mouse assessed as reduction in tumor volume at 10 to 50 mg/kg, po bid administered for 20 days; type: functional, organism-based; details: dose 10-50 mg/kg, time 20.0 day
# [2] = Tmax in CD rat at 200 mg/kg, po measured for 24 hrs by LC-MS/MS analysis; type: ADME, organism-based; details: in vivo
# [3] = Cytotoxicity against human CD8-positive T cells at 100 uM incubated for 4 days by Cell Titer-Glo assay; type: toxicity, cell-based; details: 96 h, time 4 day
# [4] = Oral bioavailability in CD rat at 50 mg/kg measured for 24 hrs by LC-MS/MS analysis; type: ADME, organism-based; details: in vivo, po, 50 mg/kg, 24 h
# [5] = AUC (0 to 24 hrs) in CD rat at 500 mg/kg, po measured for 24 hrs by LC-MS/MS analysis; type: ADME, organism-based; design: time 24 hrs, dose 500 mg/kg, route po; details: in vivo
# EG7 [6] = test: Antitumor activity against mouse EG7 cells implanted in C57BL/6 mouse assessed as activation of tumor-directed immune response by measuring increase in tumor-infiltrating CD8 positive cells at 50 mg/kg, po bid measured after 14 days by flow cytometry; type: functional, organism-based; details: time 14.0 day
# 5'-nucleotidase = 5'-nucleotidase (Homo sapiens, UniProt P21589); test: Competitive inhibition of soluble C-terminal 6His-tagged recombinant human CD73 (27 to 547 residues) expressed in CHO cells assessed as inhibition constant incubated for 1 hr by malachite green based spectrophotometer assay; type: cell-based
# [7] = Cmax in CD rat at 500 mg/kg, po measured for 24 hrs by LC-MS/MS analysis; type: ADME, organism-based; design: dose 500 mg/kg, time 24 hrs, route po; details: in vivo
# Cytochrome P450 1A2 = target: T1, Cytochrome P450 1A2 (Homo sapiens, UniProt P05177); test: Inhibition of human CYP1A2 at 10 uM; type: ADME
# T1 sequence (P05177 whole entry): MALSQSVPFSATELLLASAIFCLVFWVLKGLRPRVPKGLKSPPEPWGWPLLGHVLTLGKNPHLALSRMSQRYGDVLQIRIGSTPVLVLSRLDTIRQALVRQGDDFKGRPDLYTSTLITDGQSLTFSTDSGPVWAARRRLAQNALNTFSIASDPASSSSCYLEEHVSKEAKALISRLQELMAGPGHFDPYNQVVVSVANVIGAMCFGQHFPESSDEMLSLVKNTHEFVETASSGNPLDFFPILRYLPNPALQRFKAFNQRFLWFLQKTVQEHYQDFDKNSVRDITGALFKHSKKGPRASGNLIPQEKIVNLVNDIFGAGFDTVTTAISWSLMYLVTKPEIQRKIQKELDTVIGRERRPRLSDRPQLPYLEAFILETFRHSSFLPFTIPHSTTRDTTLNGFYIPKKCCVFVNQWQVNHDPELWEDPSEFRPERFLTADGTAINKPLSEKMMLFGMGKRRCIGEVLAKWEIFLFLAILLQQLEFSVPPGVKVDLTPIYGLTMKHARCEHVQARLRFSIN
# Cytochrome P450 2C8 = target: T2, Cytochrome P450 2C8 (Homo sapiens, UniProt P10632); test: Inhibition of human CYP2C8 at 10 uM; type: ADME
# T2 sequence (P10632 whole entry): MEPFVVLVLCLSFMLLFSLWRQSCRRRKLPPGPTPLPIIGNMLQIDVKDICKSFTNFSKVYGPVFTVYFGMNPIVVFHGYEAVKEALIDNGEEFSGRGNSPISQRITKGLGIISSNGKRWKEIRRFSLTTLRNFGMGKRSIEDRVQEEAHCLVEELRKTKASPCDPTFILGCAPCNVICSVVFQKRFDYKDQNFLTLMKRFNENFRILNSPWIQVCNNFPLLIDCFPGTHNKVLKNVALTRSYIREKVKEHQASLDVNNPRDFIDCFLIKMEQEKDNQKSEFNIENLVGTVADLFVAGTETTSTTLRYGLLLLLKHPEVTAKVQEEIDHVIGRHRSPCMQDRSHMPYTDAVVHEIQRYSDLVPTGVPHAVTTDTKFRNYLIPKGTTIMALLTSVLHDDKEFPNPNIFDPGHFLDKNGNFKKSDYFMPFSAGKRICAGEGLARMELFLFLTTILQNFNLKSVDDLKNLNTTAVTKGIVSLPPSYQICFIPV
# [8] = Plasma protein binding in mouse at 10 uM assessed as bound fraction; type: ADME, cell-free; details: read-out: PPB (converted)
# CD8-positive T cell [9] = test: Reversal of AMP-mediated suppression of human CD8-positive T cells function assessed as increase in IFN-gamma level at 0.01 to 1000 nM measured after 4 days by ELISA; type: functional, cell-based; details: dose 0.01-1000 nM, time 4.0 day
# EG7 [10] = test: Antitumor activity against mouse EG7 cells implanted in C57BL/6 mouse assessed as reduction in tumor volume at 50 mg/kg, po bid administered for 19 days in presence of doxorubicin; type: functional, organism-based; details: time 19.0 day
# CD8-positive T cell [11] = test: Reversal of AMP-mediated suppression of human CD8-positive T cell proliferation at 0.01 to 1000 nM measured after 4 days by flow cytometry; type: functional, cell-based; details: dose 0.01-1000 nM, time 4.0 day
# EG7 [12] = test: Antiproliferative activity against mouse EG7 cells at 100 uM incubated for 3 days by Cell Titer-Glo assay; type: functional, cell-based; details: time 3.0 day
# [13] = Drug concentration in tumor of mouse implanted with mouse EG7 cells at 10 to 50 mg/kg, po bid administered for 20 days and measured after 16 hrs post-last dose by LC/MS analysis; type: ADME, organism-based, Neoplasm; details: dose 10-50 mg/kg, time 20 day, read-out: Ct
# Cytochrome P450 3A4 = Cytochrome P450 3A4 (Homo sapiens, UniProt P08684); test: Inhibition of human CYP3A4 at 10 uM; type: ADME
# [14] = In vivo inhibition of plasma CD73 in mouse xenografted with mouse EG7 cells at 50 mg/kg, po bid administered for 20 days and measured after 2 hrs post last dose in presence of 15N5-AMP and TNAP inhibitor by LC/MS analysis relative to control; type: functional; details: EG7, 480 h, time 20 day
# [15] = Drug concentration in CD rat plasma at 50 to 500 mg/kg, po measured for 24 hrs by LC-MS/MS analysis; type: ADME, organism-based; details: dose 50-500 mg/kg
# [16] = Plasma protein binding in monkey at 10 uM assessed as bound fraction; type: ADME, cell-free, Macaca mulatta; details: rhesus monkey, read-out: PPB (converted)
# Chain of 5'-nucleotidase (P21589 whole entry, the tested form may be a part): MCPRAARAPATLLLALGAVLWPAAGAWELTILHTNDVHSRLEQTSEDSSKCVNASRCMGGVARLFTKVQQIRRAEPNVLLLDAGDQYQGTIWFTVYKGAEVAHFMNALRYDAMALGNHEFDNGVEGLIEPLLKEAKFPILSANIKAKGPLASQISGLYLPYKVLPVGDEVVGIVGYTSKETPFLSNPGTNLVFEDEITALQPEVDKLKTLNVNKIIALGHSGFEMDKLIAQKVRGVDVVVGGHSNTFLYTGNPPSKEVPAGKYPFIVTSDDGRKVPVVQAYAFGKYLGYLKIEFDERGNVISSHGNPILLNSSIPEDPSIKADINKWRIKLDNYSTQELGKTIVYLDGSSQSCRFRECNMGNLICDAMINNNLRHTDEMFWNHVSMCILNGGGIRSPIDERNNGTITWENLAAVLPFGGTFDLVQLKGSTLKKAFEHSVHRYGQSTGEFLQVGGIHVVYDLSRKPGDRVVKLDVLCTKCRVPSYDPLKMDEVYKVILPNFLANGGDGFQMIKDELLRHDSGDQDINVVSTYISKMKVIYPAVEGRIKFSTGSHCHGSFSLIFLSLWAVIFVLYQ
# Chain of Cytochrome P450 3A4 (P08684 whole entry): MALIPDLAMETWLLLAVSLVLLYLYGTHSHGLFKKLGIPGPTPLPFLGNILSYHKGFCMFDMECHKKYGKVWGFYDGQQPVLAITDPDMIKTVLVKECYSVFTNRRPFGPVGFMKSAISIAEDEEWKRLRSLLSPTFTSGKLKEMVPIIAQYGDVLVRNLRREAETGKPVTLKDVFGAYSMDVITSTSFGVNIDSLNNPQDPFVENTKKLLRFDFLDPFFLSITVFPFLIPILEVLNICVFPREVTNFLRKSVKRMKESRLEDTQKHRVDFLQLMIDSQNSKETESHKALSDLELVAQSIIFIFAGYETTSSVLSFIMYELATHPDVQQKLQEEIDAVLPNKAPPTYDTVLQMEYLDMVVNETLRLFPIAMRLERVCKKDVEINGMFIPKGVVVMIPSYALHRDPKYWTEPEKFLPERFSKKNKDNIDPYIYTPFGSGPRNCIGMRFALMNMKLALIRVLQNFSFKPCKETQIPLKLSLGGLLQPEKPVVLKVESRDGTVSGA
structure (smiles),measurement,setting,value
C#C[C@@]1(O)[C@@H](COC(Cc2ccc(N3CCCNC3=O)cc2)(C(=O)O)C(=O)O)O[C@@H](n2cnc3c(N)nc(Cl)nc32)[C@@H]1O,Activity,EG7 [1],Active
same,Tmax,[2],48 min
same,Activity,[3],Non-Toxic
same,F,[4],2.8%
same,AUC(0-t) at 24 h,[5],18500 ng·h/mL
same,Activity,EG7 [6],Active
same,Ki,5'-nucleotidase,0.038 nM
same,Cmax,[7],11 µM
same,inhibition (INH),Cytochrome P450 1A2,Not Active
same,inhibition (INH),Cytochrome P450 2C8,Not Active
same,fraction unbound at 10 µM,[8],0.37
same,Activity,CD8-positive T cell [9],Active
same,Activity,EG7 [10],Active
same,Activity,CD8-positive T cell [11],Active
same,Activity,EG7 [12],inactive
same,concentration at 480 h,[13],> 0.003 µM
same,inhibition (INH),Cytochrome P450 3A4,Not Active
same,inhibition in vivo at 50 mg/kg,[14],92%
same,concentration at 24 h,[15],> 0.003 µM
same,fraction unbound at 10 µM,[16],0.4
